These results are taken from publication PMC10816808, “Enhancement of the Antitumor and Antimetastatic Effect of Topotecan and Normalization of Blood Counts in Mice with Lewis Carcinoma by Tdp1 Inhibitors—New Usnic Acid Derivatives” (International Journal of Molecular Sciences, 2024).

Several values for one entry are separate records, joined by “and”; a condition that tells them apart may be missing. Equal entries are not always repeated.

Data set [1] concerns the target T1, Tdp1 (Homo sapiens, UniProt Q9NUW8).
T1 construct: Purified Tdp1 (1.5 nM) triggered the reaction
In words: Tdp1 inhibition, fluorescent oligonucleotide biosensor. Format: biochemical. As to conditions: purified Tdp1 1.5 nM, 50 nM biosensor; read-out: Concentration of half-maximal inhibition of Tdp1 (IC50). The text has this:
The inhibitory properties of the compound on the purified Tdp1 was studied using a technique developed previously by our team. A 16-mer single-stranded oligonucleotide carrying a fluorophore at the 5′-end and a quencher at the 3′-end was used as a biosensor. When within the Förster radius, the quencher suppressed the fluorescence of the fluorophore. The quencher was removed by Tdp1, resulting in fluorescence emission. Usnic acid derivatives with a bromophenol residue in the enamine fragment (compounds 6 and 8) inhibit the enzyme with half-maximal inhibition concentrations (IC50) an order of magnitude worse than derivatives with a di-tert-butyl fragment (compounds 5 and 7).
An oligonucleotide 5′-[FAM] AAC GTC AGGGTC TTC C [BHQ1]-3′ synthesized in the laboratory Laboratory of Nucleic Acids Chemistry at the Institute of Chemical Biology and Fundamental Medicine (Novosibirsk, Russia) was used as a biosensor. Removal of the quencher (BHQ1) due to enzyme activity leads to increased fluorescence of FAM. The reaction was carried out at different concentrations of inhibitors (1.5% of DMSO, Sigma, St. Louis, MO, USA, in the control samples). The reaction mixtures contained Tdp1 buffer (50 mM Tris-HCl pH 8.0, 50 mM NaCl, and 7 mM β-mercaptoethanol), 50 nM biosensor, and an inhibitor being tested. Purified Tdp1 (1.5 nM) triggered the reaction.
The fluorescence was measured using POLARstar OPTIMA fluorimeter (BMG LABTECH, GmbH, Ortenberg, Germany). The values of IC50 were determined in minimum three independent experiments and were calculated using embedded software MARS Data Analysis 2.0 (BMG LABTECH, GmbH, Ortenberg, Germany).

Data set [2] in a line: MTT cytotoxicity test, MRC-5. The settings on record: human, MRC-5 cells (lung fibroblasts, nontumor), read-out: semitoxic concentration (CC50), MRC-5. Format: cell-based. The text has this: Compounds 6 and 8 with a bromophenol residue in the enamine fragment have a weak or moderate effect on cell survival (Table 1 and Supplementary Figure S1).
Cytotoxicity of the compounds against human tumor cell lines: HeLa (cervical cancer), HCT-116 (colorectal cancer), A-549 (lung cancer), MCF-7 (breast cancer), T98G (glioblastoma), HepG2 (hepatocarcinoma), and nontumor cell lines: MRC-5 (lung fibroblasts) and HEK293A (human embryonic kidney) was examined using the MTT test. HCT-116 and MRC-5 cell lines were provided by the Cell Culture Bank of the State Research Center for Virology and Biotechnology Vector, Novosibirsk, Russia. A-549, MCF-7, and T98G cell lines were obtained from the Russian Cell Culture Collection (RCCC) Institute of Cytology RAS (St. Petersburg, Russia). HEK293A cells were purchased (ThermoFisher Scientific, Waltham, MA, USA).
The cell culture medium DMEM medium (Invitrogen, Carlsbad, CA, USA) contained 10% fetal bovine serum (FBS) (Invitrogen), penicillin (100 units/mL), and streptomycin (100 µg/mL). Cells were seeded into 96-well plates at 5000 cells per well and grown at 37 °C and 5% CO2 in a humid atmosphere. At 30–50% confluence, the tested compounds were added to the medium to a final DMSO content of 1%. Control wells contained 1% DMSO. To determine the cytotoxicity of Tdp1 inhibitors, the cells were treated with compounds with concentrations ranging from 1 to 100 µM for 72 h at 37 °C […]. All measurements were repeated a minimum of twice.
Background: Formazan colour is commonly taken as a measure of viable cells.

Data set [3] relates to Krebs-2 ascitic carcinoma. The experiment in a line: Antitumor effect in the Krebs-2 ascitic carcinoma model. Format: in vivo, mice. As to conditions: for average ascites weight: C57BL mice with Krebs-2, single dose on day 4; for average ascites weight / Average number of tumor cells in ascites: mean ± SD; for Ascites weight / Total number of tumor cells / Tumor cell concentration: individual animals; for Ascites weight / Total number of tumor cells / Tumor cell concentration / Average number of tumor cells in ascites: mice with Krebs-2. The text has this:
The Krebs-2 cancer cell line was obtained from the cell depository of the Institute of Cytology and Genetics SB RAS (Novosibirsk, Russia), and is maintained in mice as a transplanted tumor. Krebs-2 carcinoma is nonspecific to the different genetic constitutions of mice and is weakly immunogenic for mice of all strains. The biological source of Krebs-2 is the epithelial cells of the abdominal wall of the mouse. With intraperitoneal transplantation of tumor cells, an ascitic form is formed.
The effect of the drugs was assessed by the weight of ascites and the number of tumor cells in it.
Strain-nonspecific Krebs-2 ascitic carcinoma was grafted to C57BL mice. Tumor cells were suspended in 0.9% NaCl prior to grafting and injected intraperitoneally (2 million cells per mouse, in 0.2 mL). An ascitic tumor develops after intraperitoneal inoculation, has low immunogenicity, and produces no metastasis during the experiment at the used dose of tumor cells.
The mice were also divided into groups of 6–7 individuals. Treatment was carried out once on the 4th day after tumor transplantation: • - Group 1—Intact control—mice of this group were inoculated with a tumor, receiving 0.2 mL of saline intraperitoneally; • - Group 2—DMSO-Tween-80—mice were injected once intragastrically with a probe 200 μL of a solution containing saline, Tween-80 (10%), and DMSO (15%); • - Group 3—DMSO-Tween-80—mice were injected once intraperitoneally with a solvent for 7; • - Group 4—Tpc (aqueous solution)—mice were injected once intraperitoneally with 200 µL of Tpc at a single dose of 1 mg/kg; • - Group 5—Tpc + 7 i/g—mice received Tpc once as described for groups 3 and 7 in the form of 200 µL of suspension in Tween-80-DMSO once intragastrically at a dose of 50 mg/kg; • - Group 6—Tpc + 7 i/p—mice were injected with topotecan once as described for groups 3 and 7 in the form of 200 µL of suspension Tween-80-DMSO once intraperitoneally at a dose of 50 mg/kg; • - Group 7—7 i/g—mice were injected with 7 as described for group 5; • - Group 8—7 i/p—mice were injected with 7 as described for group 6.
The ascitic tumor weight and the cancer cell concentration in the ascitic fluid (as counted with a Goryaev chamber) were evaluated at the end of the experiment to estimate the effects of the substances. To prepare the samples for cell counting with a Goryaev chamber, 10 μL of the ascitic fluid was combined with 400 μL of saline (a 40-fold dilution). Cells were counted in five large squares, each divided into 16 small squares (80 squares in total) at a low magnification.

The mark [4] stands for this setting: 7 50 mg/kg i/g, alone or with Tpc 1 mg/kg i/p.
Where [5] appears, read: Tpc 1 mg/kg i/p and/or 7 50 mg/kg i/p.

T1 sequence (Q9NUW8 whole entry): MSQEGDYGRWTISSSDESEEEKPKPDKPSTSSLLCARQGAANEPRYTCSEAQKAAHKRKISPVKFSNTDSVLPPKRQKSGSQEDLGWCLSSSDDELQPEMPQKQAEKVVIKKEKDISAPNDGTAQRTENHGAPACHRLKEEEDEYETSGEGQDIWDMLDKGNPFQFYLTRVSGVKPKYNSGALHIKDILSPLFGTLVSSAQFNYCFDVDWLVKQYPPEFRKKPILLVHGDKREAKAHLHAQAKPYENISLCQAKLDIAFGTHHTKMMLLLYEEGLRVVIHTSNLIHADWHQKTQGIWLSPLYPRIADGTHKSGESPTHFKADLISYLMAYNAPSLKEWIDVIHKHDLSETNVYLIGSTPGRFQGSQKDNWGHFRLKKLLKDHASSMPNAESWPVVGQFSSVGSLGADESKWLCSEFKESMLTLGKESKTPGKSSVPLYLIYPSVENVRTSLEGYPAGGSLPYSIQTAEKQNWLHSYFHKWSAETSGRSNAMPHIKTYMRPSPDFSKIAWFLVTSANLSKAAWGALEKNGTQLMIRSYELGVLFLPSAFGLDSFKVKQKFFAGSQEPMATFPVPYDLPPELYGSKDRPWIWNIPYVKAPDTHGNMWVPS

Take `C/C(NCCCc1cc(C(C)(C)C)c(O)c(C(C)(C)C)c1)=C1\C(=O)C=C2Oc3c(-c4csc(N/N=C/c5ccc(Br)cc5)n4)c(O)c(C)c(O)c3[C@@]2(C)C1=O` [Compound 7, (4E)-10-{2-[(E)-2-[(4-bromophenyl)methylidene]hydrazin-1-yl]-1,3-thiazole-4-yl}-4-(1-{[3-(3,5-di-tret-butyl-4-hydroxyhenyl)propyl]amino}ethylidene)-11,13-dihydroxy-2,12-dimethyl-8-oxatricyclo [7.4.0.02,7]trideca-1(13),6,9,11-tetraen-3,5-dione]: the IC50 in data set [1] worked out at 120 ± 10 nM. Besides, the CC50 at 72 h in data set [2] is above 100000 nM. Further, in data set [3] (setting [4]), the average ascites weight is 5±0,5 g; the Ascites weight was 4.6 g and 6.2 g and 5.1 g and 4.5 g; the “Total number of tumor cells” value is 372.6 million and 403 million and 230 million and 209.1 million and 162 million; the Tumor cell concentration is 81 million/ml and 65 million/ml and 50 million/ml and 41 million/ml and 36 million/ml. In data set [3] (setting [4]), the “Average number of tumor cells in ascites” value is recorded as 275,3±90 million. Besides, in data set [3] (setting [5]), the average ascites weight was 4,1±1,4 g; the Ascites weight is 3.1 g and 2.4 g and 4.5 g and 5.5 g and 2.1 g and 5.2 g and 6.2 g; the “Total number of tumor cells” value was 204.6 million and 105.6 million and 234 million and 165 million and 44.1 million and 530.4 million and 576.6 million; the Tumor cell concentration was 66 million/ml and 44 million/ml and 52 million/ml and 30 million/ml and 21 million/ml and 102 million/ml and 93 million/ml. Moreover, the “Average number of tumor cells in ascites” value in data set [3] (setting [5]) is given as 265,8±164,4 million.

In the case of `CC[C@@]1(O)C(=O)OCc2c1cc1n(c2=O)Cc2cc3c(CN(C)C)c(O)ccc3nc2-1` [Tpc, topotecan], in data set [3] (setting [5]), the average ascites weight is recorded as 3±0,9 g; the Ascites weight is 2.3 g and 5.6 g and 3.5 g and 2 g and 2.9 g and 2.4 g; the “Total number of tumor cells” value is 218.5 million and 459.2 million and 266 million and 182 million and 188.5 million and 120 million and 148.8 million; the Tumor cell concentration is 95 million/ml and 82 million/ml and 76 million/ml and 91 million/ml and 65 million/ml and 50 million/ml and 62 million/ml. The “Average number of tumor cells in ascites” value in data set [3] (setting [5]) is on record as 226,1±78 million.
